Series [1] concerns EphB receptors. Briefly: Peptide pull-down of endogenous EphB receptors from lysates. As to conditions: peptide on streptavidin beads; mouse brain or cultured cell lysates. It is filed as binding. The protocol:
The ability of the peptides to bind in a stable manner, which is important for both targeting and competitive inhibition, was tested in pull-down experiments. For peptide pull-down experiments, cells in 60 cm plates at 70% confluency or adult mouse brain tissue were solubilized in pull-down buffer (50 mM HEPES pH 7.5, 150 mM NaCl, 10% glycerol, 1% Triton-X100, 5 mM KCl and 1 mM EDTA). Three μg of biotinylated peptide were incubated for 45-90 min with 5 μl streptavidin agarose beads (Sigma), unbound peptide was washed away, and the beads were incubated with the cell lysates for 45-90 min. Proteins bound to the beads were separated by SDS-polyacrylamide gel electrophoresis and probed by immunoblotting with EphB1, EphB2, or EphB4 antibodies. The EphB1 antibody (Santa Cruz) was detected with a secondary anti-goat IgG peroxidase-conjugated antibody (BioRad Laboratories). The EphB2 and EphB4 antibodies were affinity-purified polyclonal antibodies to GST fusion proteins containing approximately 100 amino acids from the carboxy-terminal tails of the EphB2 or EphB4 receptors (Noren, N. K. et al. 2004 PNAS USA 101:5583-5588; Holash, J. A. & Pasquale, E. B. 1995 Devel Biol 172:683-693) and were detected with a secondary anti-rabbit IgG peroxidase-conjugated antibody (Amersham Biosciences). […]

Series [2] deals with COS cells. As to conditions: 400 μM peptide; […] ephrin-B1 Fc.
Protocol: Upon treatment with 1.5 μg/ml ephrin-B1 Fc, COS cells retract at the periphery, leaving behind spike-like protrusions. […] COS cells were plated onto glass coverslips and sixteen hours later were starved for three hours in DME with 0.5% fetal calf serum. The cells were then incubated for 20 min with 400 μM SNEW or control peptide in PBS, or an equal volume of PBS as a control, and then either left untreated or stimulated for 10 min with 1.5 μg/ml ephrinB1-Fc (R&D Systems, Inc.). […] Control peptide: RTVA.
Series [3] has as its target T1, EphB4 (Homo sapiens, UniProt P54760).
T1 construct: panned on the ectodomains of EphB1, EphB2, or EphB4 fused to human Fc
T1 sequence (P54760 16-539 limits assumed): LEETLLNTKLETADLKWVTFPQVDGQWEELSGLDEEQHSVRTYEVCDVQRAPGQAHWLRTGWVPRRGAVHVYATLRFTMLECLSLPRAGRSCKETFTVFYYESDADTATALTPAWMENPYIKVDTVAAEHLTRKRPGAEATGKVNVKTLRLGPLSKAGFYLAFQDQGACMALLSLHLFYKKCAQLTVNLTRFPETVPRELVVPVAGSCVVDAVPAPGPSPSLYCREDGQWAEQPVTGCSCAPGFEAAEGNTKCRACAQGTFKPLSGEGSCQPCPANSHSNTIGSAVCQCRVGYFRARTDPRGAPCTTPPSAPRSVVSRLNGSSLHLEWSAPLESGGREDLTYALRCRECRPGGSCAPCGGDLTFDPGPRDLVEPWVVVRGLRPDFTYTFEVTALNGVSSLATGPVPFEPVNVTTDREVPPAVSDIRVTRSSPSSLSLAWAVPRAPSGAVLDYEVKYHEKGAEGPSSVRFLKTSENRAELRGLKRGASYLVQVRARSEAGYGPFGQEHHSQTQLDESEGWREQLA
The experiment in a line: Peptide competition of phage binding to EphB4 ectodomain. As to conditions: concentration-dependent. As for the experimental part:
To measure peptide competition of phage binding to EphB receptors, Ni-NTA wells coated with Eph ectodomain Fc were incubated for 30 min at room temperature with various peptide concentrations in binding buffer (100 μl/well). Concentrated stocks of phage clones diluted between 1:500 and 1:10,000 in binding buffer were then added to the wells for a 1 hr at room temperature. Wells were washed and bound phage were detected using the anti-M13 antibody. A biotinylated control peptide with sequence unrelated to the sequences of the Eph-binding peptides ([…], SEQ ID NO: 40) was used as a negative control in some of the experiments, as indicated in the figure legends.
[…]. The SNEW peptide at 25 μM inhibited EphB2 binding of most phage clones isolated by panning on EphB2 (FIGS. 2E and G). The only exceptions were the IHWP, DHRWV and WHWT clones. However, binding of these clones was inhibited by 50 μM SNEW peptide, particularly when the phage concentration was halved. […] Bound phage were detected using anti-M13 phage antibody coupled to HRP and phage binding in the presence of peptide was normalized to phage binding in the absence of peptide. Error bars indicate standard deviation from duplicate measurements, and were calculated taking into account propagation of errors.

Series [4] addresses T2, EphB4 (Homo sapiens, UniProt P54760).
T2 construct: MCF-7 human breast cancer cells, which endogenously express EphB4; endogenous in cells; host or cells: MCF7
T2 sequence (P54760 16-987): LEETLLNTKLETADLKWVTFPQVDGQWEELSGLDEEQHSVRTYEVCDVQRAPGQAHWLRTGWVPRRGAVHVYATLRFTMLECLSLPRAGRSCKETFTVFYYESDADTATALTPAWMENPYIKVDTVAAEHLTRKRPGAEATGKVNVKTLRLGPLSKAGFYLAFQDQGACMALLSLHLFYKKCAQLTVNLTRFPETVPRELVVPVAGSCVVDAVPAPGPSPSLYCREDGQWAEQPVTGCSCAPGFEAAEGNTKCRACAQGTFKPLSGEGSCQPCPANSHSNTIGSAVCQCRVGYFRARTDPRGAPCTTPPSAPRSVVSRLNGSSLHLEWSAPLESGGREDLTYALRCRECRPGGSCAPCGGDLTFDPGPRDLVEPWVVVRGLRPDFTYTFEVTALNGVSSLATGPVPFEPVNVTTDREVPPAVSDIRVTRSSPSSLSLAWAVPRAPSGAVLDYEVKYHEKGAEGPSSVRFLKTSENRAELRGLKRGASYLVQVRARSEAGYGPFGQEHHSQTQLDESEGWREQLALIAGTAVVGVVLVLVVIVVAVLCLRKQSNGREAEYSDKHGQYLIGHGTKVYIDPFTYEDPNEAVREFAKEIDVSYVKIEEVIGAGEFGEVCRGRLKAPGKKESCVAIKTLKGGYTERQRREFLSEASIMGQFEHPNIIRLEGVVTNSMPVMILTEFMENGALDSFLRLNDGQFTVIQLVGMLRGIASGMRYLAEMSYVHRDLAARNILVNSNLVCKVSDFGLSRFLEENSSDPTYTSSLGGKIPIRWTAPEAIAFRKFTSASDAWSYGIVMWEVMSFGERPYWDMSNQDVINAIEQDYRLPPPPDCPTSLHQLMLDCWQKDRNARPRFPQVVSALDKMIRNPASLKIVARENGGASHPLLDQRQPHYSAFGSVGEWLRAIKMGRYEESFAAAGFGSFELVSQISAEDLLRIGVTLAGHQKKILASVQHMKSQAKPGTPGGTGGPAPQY
The experiment in a line: Peptide pull-down of EphB4 from MCF7 or transfected 293T cells. Type of series: binding. The protocol:
The ability of the peptides to bind in a stable manner, which is important for both targeting and competitive inhibition, was tested in pull-down experiments. For peptide pull-down experiments, cells in 60 cm plates at 70% confluency or adult mouse brain tissue were solubilized in pull-down buffer (50 mM HEPES pH 7.5, 150 mM NaCl, 10% glycerol, 1% Triton-X100, 5 mM KCl and 1 mM EDTA). Three μg of biotinylated peptide were incubated for 45-90 min with 5 μl streptavidin agarose beads (Sigma), unbound peptide was washed away, and the beads were incubated with the cell lysates for 45-90 min. Proteins bound to the beads were separated by SDS-polyacrylamide gel electrophoresis and probed by immunoblotting with EphB1, EphB2, or EphB4 antibodies. The EphB1 antibody (Santa Cruz) was detected with a secondary anti-goat IgG peroxidase-conjugated antibody (BioRad Laboratories). The EphB2 and EphB4 antibodies were affinity-purified polyclonal antibodies to GST fusion proteins containing approximately 100 amino acids from the carboxy-terminal tails of the EphB2 or EphB4 receptors (Noren, N. K. et al. 2004 PNAS USA 101:5583-5588; Holash, J. A. & Pasquale, E. B. 1995 Devel Biol 172:683-693) and were detected with a secondary anti-rabbit IgG peroxidase-conjugated antibody (Amersham Biosciences).
Endogenous EphB receptors were isolated from lysates of mouse brain or cultured cells using the EWLS, SNEW, and TNYL peptides immobilized on streptavidin beads (FIGS. 5B, F, G and H). […] RTVA was used as a control peptide for the EphB4 pull downs. The NPVI peptide could isolate EphB4 from transfected cells but not endogenous EphB4 from MCF7 cells, which is present at lower levels (FIGS. 5B, F, G and H). […] EphB receptors were not detected bound to the beads coated with the other peptides.

Series [5] in a line: Solubility in aqueous buffers. Type of series: physicochemical. An excerpt: To determine whether different phage clones target overlapping Eph receptor binding sites, the EWLS EphB1-binding peptide and the TNYL EphB4-binding peptide were chemically synthesized. […] Peptides were synthesized using Fmoc (N-(9-fluorenyl)methoxycarbonyl) chemistry and purified by high pressure liquid chromatography. Biotinylated peptides were synthesized with a carboxy-terminal GSGSK linker with biotin attached to the lysine side chain or with a carboxy-terminal GSGS sequence linked to a carboxy-terminal N-biotinyl-N′-Fmoc-ethylenediamine (Novabiochem). Matrix-assisted laser desorption ionization-time of flight mass spectrometry was used to verify proper peptide synthesis, and purity. Stock solutions of the peptides were dissolved in phosphate buffered saline (PBS, Irvine Scientific) and the pH was verified to be ˜6.5. […] Peptide concentrations were calculated based on (O)280.

In series [6] the target is T3, EphB2 (Homo sapiens, UniProt P29323).
T3 sequence (P29323 19-1055): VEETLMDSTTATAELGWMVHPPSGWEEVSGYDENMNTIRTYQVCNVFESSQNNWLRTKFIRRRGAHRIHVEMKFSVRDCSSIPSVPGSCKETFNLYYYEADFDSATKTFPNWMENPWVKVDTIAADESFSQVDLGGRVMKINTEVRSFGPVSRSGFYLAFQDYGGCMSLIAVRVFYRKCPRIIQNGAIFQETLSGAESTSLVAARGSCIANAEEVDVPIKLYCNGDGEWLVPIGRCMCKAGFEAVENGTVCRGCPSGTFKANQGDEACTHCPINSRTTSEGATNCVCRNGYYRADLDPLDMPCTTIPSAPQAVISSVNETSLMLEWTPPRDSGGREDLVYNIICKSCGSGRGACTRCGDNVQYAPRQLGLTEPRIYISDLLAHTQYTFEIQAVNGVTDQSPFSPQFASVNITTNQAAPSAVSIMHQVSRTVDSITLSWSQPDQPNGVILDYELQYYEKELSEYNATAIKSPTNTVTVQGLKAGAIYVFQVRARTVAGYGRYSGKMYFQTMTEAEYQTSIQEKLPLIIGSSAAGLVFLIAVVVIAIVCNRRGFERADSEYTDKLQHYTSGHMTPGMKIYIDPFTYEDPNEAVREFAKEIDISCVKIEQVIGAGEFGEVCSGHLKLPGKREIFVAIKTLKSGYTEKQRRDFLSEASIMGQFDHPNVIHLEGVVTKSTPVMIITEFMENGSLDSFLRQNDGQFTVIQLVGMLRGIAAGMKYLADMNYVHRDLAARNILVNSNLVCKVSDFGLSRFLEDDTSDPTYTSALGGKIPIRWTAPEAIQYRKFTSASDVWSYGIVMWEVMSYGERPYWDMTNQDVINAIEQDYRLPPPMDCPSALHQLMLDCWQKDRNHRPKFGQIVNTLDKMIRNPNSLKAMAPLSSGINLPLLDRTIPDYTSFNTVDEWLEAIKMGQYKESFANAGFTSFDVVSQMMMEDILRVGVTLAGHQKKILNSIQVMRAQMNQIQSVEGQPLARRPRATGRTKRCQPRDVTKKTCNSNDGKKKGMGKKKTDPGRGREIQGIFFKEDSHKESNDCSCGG
The settings on record: read-out: KD for monovalent EphB2-ephrin-B2 interaction; cited from earlier work.

On to `CC[C@H](C)[C@H](NC(=O)[C@H](Cc1c[nH]c2ccccc12)NC(=O)[C@H](CCC(=O)O)NC(=O)[C@H](CC(N)=O)NC(=O)[C@@H](N)CO)C(=O)N[C@@H](CCC(N)=O)C(=O)N1CCC[C@H]1C(=O)N[C@@H](CCCNC(=N)N)C(=O)N[C@@H](CC(C)C)C(=O)N1CCC[C@H]1C(=O)N[C@@H](CCC(N)=O)C(=O)N[C@@H](Cc1c[nH]cn1)C(=O)O` [SEQ ID NO 18], for which the “Stable binding of EphB receptors in pull-down” value in series [1] was “stably bind EphB receptors”. Further, the “Inhibition of COS cell retraction phenotype” value in series [2] is reported as “inhibited the COS cell retraction phenotype”. Regarding “SEQ ID NO 20: 12-mer from EphB4 panning; printed DAL[image]D[image]L[image]FRPW (DALNDWLLFRPW)”, in series [3], the “Inhibition of DALN phage binding to immobilized EphB4 ectodomain” value was “inhibited binding of DALN phage”. The “Pull-down of EphB4, peptides used alone or together” value in series [4] is “ineffective”. With `CC[C@H](C)[C@H](NC(=O)[C@H](C)NC(=O)[C@H](Cc1ccccc1)NC(=O)[C@@H]1CCCN1C(=O)[C@H](CCC(=O)O)NC(=O)[C@@H](NC(=O)[C@@H](NC(=O)[C@H](Cc1c[nH]c2ccccc12)NC(=O)[C@H](Cc1c[nH]cn1)NC(=O)[C@@H](N)Cc1c[nH]c2ccccc12)[C@@H](C)O)[C@@H](C)CC)C(=O)N[C@H](C(=O)N[C@@H](CO)C(=O)O)[C@@H](C)O` [SEQ ID NO 8], the “Solubility in aqueous buffers” value in series [5] is on record as “low solubility”.

B1: ephrin-B2: ephrin ligand; monovalent interaction with EphB2, literature KD (protein, UniProt P52799 28-333, looked up)
Ephrin-B2: IVLEPIYWNSSNSKFLPGQGLVLYPQIGDKLDIICPKVDSKTVGQYEYYKVYMVDKDQADRCTIKKENTPLLNCAKPDQDIKFTIKFQEFSPNLWGLEFQKNKDYYIISTSNGSLEGLDNQEGGVCQTRAMKILMKVGQDASSAGSTRNKDPTRRPELEAGTNGRSSTTSPFVKPNPGSSTDGNSAGHSGNNILGSEVALFAGIASGCIIFIVIIITLVVLLLKYRRRHRKHSPQHTTTLSLSTLATPKRSGNNNGSEPSDIIIPLRTADSVFCPHYEKVSGDYGHPVYIVQEMPPQSPANIYYKV
Turning to B1, the Kd – broadly, the free concentration of one partner at which half of the binding sites on the other are occupied at equilibrium, for simple one-to-one binding – in series [6] was 16 nM.

The values are drawn from US7999069B2, “EphB receptor-binding peptides” (Sanford-Burnham Medical Research Institute, priority 2005, dated 2011).
